# Results taken from PubChem BioAssay AID179 (DTP/NCI, 2004).
# Activity calls are given as the source filed them.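 Rule for the calls: active = compounds giving half or more protection of infected cells from virus-caused growth loss, again on retest; inactive = the rest.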 Where a SMILES comes first, the peptide text is derived from it. [ ]: non-standard residue; d: D form. The star is where a group is joined. Ac5c = NC1(C(=O)O)CCCC1; Cbz = O=C(OCc1ccccc1)*; Boc = CC(C)(C)OC(=O)*; tBu = CC(C)(C)*
# System: CEM cells HIV-1 protection, formazan growth assay
# Assay: NCI AIDS Antiviral Assay
# Conditions: for IC50: measured here: growth of uninfected CEM cells
# Procedure, shortened: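 Soluble formazan readout of cell growth; CEM cells ± HIV-1; 5 drug concs. ≥50% protection → retest; ≥50% again = moderately active; reproducible 100% = confirmed active.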
Compound,EC50,IC50,outcome
C[CH2][Sn]([CH2]C)([O]C(=O)c1c(F)cccc1F)[O][Sn]([CH2]C)([CH2]C)[O]C(=O)c1c(F)cccc1F,> 72.4 µM,4.79 µM,–
Cc1ccc(N=C(SSC(Cl)(Cl)Cl)SSC(Cl)(Cl)Cl)cc1,–,–,inactive
C=CCOc1ccccc1C1(O)c2ccccc2C2=NCCCN21 (stereo unspecified),> 200 µM,40.7 µM,–
N#C/C(=C\c1ccc(Cl)cc1)c1nc2ccccc2c(=O)[nH]1,–,–,inactive
O=C(CC(=O)C1CCOC1=O)C(=O)Nc1ccc(Cl)cc1 (stereo unspecified),–,–,inactive
O=C1CCC23/C=C/C(=O)NCCCCNCCCNC(=O)/C=C/c4ccc(c2c4)OC3C1 (stereo unspecified),> 148 µM,> 148 µM,–
CCCN=Cc1c(O)c(O)c(C(C)C)c2cc(C)c(-c3c(C)cc4c(C(C)C)c(O)c(O)c(C=NCCC)c4c3O)c(O)c12,> 6.31 µM,1.15 µM,–
CC(C)=CC[P+](c1ccccc1)(c1ccccc1)c1ccccc1,> 200 µM,2.09 µM,–
CC1C(c2ccc(Cl)cc2)c2cc3c(cc2OC1N1CCOCC1)OCO3 (stereo unspecified),> 100 µM,21.4 µM,–
Cc1nc2sccn2c1C(N)=O,> 200 µM,> 200 µM,–
Oc1ccc(Nc2nc(Cl)c3[nH]cnc3n2)cc1,> 200 µM,107 µM,–
CNC(=O)OCCOc1ccccc1,> 200 µM,> 200 µM,–
CN(C)C1COC2Cc3ccccc3C1O2 (stereo unspecified),> 200 µM,> 200 µM,–
C=C1C2CCC3(CCC4C5(C)CCCC4(CN(CCO)C5)C3C2)C1O (stereo unspecified),–,–,inactive
Nc1ccc2oc(=O)c(C(=O)O)cc2c1,> 363 µM,162 µM,–
Cn1c(=O)n2c(-c3ccccc3)c(-c3ccccc3)n2c1=O,> 200 µM,102 µM,–
Cc1cc(=O)n(-c2ccccc2)c(=S)n1-c1nc2ccccc2[nH]1,> 107 µM,63.1 µM,–

Compound,EC50,IC50,outcome
O=C(O)c1nc(-c2ccc(Cl)c(Cl)c2)nc2ccc(Cl)cc12,–,–,inactive
CCC1=C(c2cccc(OC(C)=O)c2)C(C)c2ccc(OC(C)=O)cc21 (stereo unspecified),> 200 µM,7.41 µM,–
C=C(C)C1CCC2(CO)C(O)CC3(C)C(CCC4C5(C)CCC(O)C(C)(C)C5CCC43C)C12 (stereo unspecified),> 100 µM,75.9 µM,–
CN1CCN(Cc2nc3c(s2)CCc2sccc2-3)CC1,> 200 µM,57.5 µM,–
N#CC(NCCc1ccccc1)c1ccc(C(C#N)NCCc2ccccc2)cc1 (stereo unspecified),> 200 µM,10.5 µM,–
CCC12C=C(C(=O)OC)N3c4ccccc4C4CCN(CCC1)C2C43 (stereo unspecified),–,–,inactive
CNS(=O)(=O)c1c(NC=O)ncn1C,> 1150 µM,> 1150 µM,–
COC(=O)C1(NC(=O)C(Cc2ccccc2)NC(=O)C(NC(=O)C(CCCCNC(=O)OC(C)(C)C)NC(=O)C(Cc2c[nH]c3ccccc23)NC(=O)C(Cc2ccccc2)NC(=O)OCc2ccccc2)C(C)OC(C)(C)C)CCCC1 (stereo unspecified) (Cbz-FWK(Boc)T(tBu)F[Ac5c]-OMe; configuration not given here),> 200 µM,115 µM,–
Cn1cc(S(=O)(=O)NC(=O)Nc2ccc(Cl)cc2)c(=O)c2ccc(Cl)cc21,> 200 µM,36.3 µM,–
[Cu+2].[O-]/N=C/c1ccc(O)cc1[O-].[O-]/N=C/c1ccc(O)cc1[O-],> 26.9 µM,13.2 µM,–
OC1CC=C2CCN3Cc4cc5c(cc4C1C23)OCO5 (stereo unspecified),–,–,inactive
CCCCCCCCCCCCN1[C@H]2CCC[C@H]2C(O)[C@@H]2CCC[C@@H]21 (stereo partly specified),> 200 µM,4.9 µM,–
CCCCNC(C)(C)C(SSSC(c1cccs1)C(C)(C)NCCCC)c1cccs1 (stereo unspecified),> 200 µM,20 µM,–
COC(=O)c1cc2/c(=N/O)c3ccccc3sc2o1,> 200 µM,> 200 µM,–
CN(C)c1nc(NC23CC4CC(CC(C4)C2)C3)nc(N(C)C)n1,> 200 µM,5.01 µM,–
O=C1NCC(=O)c2ncn(C3OC(CO)C(O)C3O)c2N1 (stereo unspecified),> 603 µM,> 603 µM,–
CCCCCCCC(=O)OCC(COC(=O)C(C)(C)C)OC(=O)Cc1ccccc1 (stereo unspecified),> 251 µM,> 251 µM,–
